A short description of series [1]: Physical form and Tg of formulations by XRPD and/or DSC. The format is physicochemical. The conditions noted are these: as prepared. How it is done:
The physical form of the product is identified visually (e.g., solid powder) and by XRPD and/or DSC (to assess amorphous or crystalline state). Tg values are estimates from DSC curves.
X-ray Powder Diffraction (XRPD) is performed with a Panalytical X'Pert^3 Powder XRPD. FIGS. 8-10 show XRPD plots for various formulations made using ITZ and PAA-8. In FIG. 8, plots for ITZ alone (Neat IZT, Formulation F25), a physical mixture of 15% ITZ and 85% PAA (PM 15%, Formulation F26), and a spray-dried solid dispersion of 15% ITZ and 85% PAA (ASD 15%, Formulation F2), are shown. In FIG. 9, plots for ITZ alone (Neat IZT, Formulation F25), a physical mixture of 30% ITZ and 70% PAA (PM 30%, Formulation F27), and a spray-dried solid dispersion of 30% ITZ and 70% PAA (ASD 30%, Formulation F3), are shown. In FIG. 10, plots for ITZ alone (Neat IZT, Formulation F25), a physical mixture of 50% ITZ and 50% PAA (PM 50%, Formulation F28), and a spray-dried solid dispersion of 50% ITZ and 50% PAA (ASD 50%, Formulation F5), are shown.
XRPD is performed with Si zero background holders. The 2-theta position is performed with a Panalytical Si reference standard disc. The XRPD instrument configuration is Bragg-Brentano geometry.
Differential Scanning calorimetry (DSC) is performed with a Mettler-Toldeo DSC-1 instrument (no modulated DSC software) using a sample amount of 5-10 mg. […]

For series [2] the following is noted: model APIs; cited from earlier work.
The nature of series [3]: Solubility limit of drug in equilibrated dissolution media. The format is physicochemical. The conditions noted are these: equilibrated dissolution media (0.1 N HCl), simulated gastric fluid; 750 mL 0.1 N HCl, 37° C.
For series [4] the following is noted: cited from earlier work.

In brackets after ≈: the same amount, converted by molar mass.

Broadly, the solubility is the concentration that dissolves in the medium under given conditions. Low values mean little dissolved substance, high ones much dissolved substance. The Aqueous solubility is the concentration that dissolves in the medium under given conditions.

Regarding `CC(C)c1nc(CN(C)C(=O)N[C@H](C(=O)N[C@@H](Cc2ccccc2)C[C@H](O)[C@H](Cc2ccccc2)NC(=O)OCc2cncs2)C(C)C)cs1` [Ritonavir, 5-thiazolylmethyl ((alphaS)-alpha-((1S,3S)-1-hydroxy-3-((2S)-2-(3-((2-isopropyl-4-thiazolyl)methyl)-3-methylureido)-3-methylbutyramido)-4-phenylbutyl)phenethyl)carbamate], the Form result in series [1] is given as “Crystalline”. Besides, the “Glass transition temperature, Tg (° C.)” value in series [2] is 45 °C.
For `CCC(C)n1ncn(-c2ccc(N3CCN(c4ccc(OCC5COC(Cn6cncn6)(c6ccc(Cl)cc6Cl)O5)cc4)CC3)cc2)c1=O` [Itraconazole, 1-(butan-2-yl)-4-{4-[4-(4-{[(2R, 4S)-2-(2,4-dichlorophenyl)-2-(1H-1,2,4-triazol-1-ylmethyl)-1,3-dioxolan-4-yl]methoxylphenyl)piperazin-1-yl]phenyl}-4,5-dihydro-1H-1,2,4-triazol-5-one], the solubility in series [3] was 4 to 6 µg/mL (≈ 5.67 to 8.5 µM). For the same compound, the Aqueous solubility in series [4] is 0.001 to 0.004 µg/mL. In series [4] (water), the solubility in water was 0.001 to 0.004 µg/mL.

The record behind these values is patent publication US20220304936A1, “DRUG-POLYMER AMORPHOUS SOLID DISPERSIONS USING LINEAR POLY(ACRYLIC ACID) POLYMERS” (LUBRIZOL ADVANCED MATERIALS, INC., priority 2019, published 2022).
